The source of these data is patent US20090286803A1, “COMBINATION COMPRISING A) A PYRIMIDYLAMINOBENZAMIDE COMPOUND, AND B) A THR315LLE KINASE INHIBITOR” (priority 2006, published 2009).

One assay relates to mutant forms of Bcr-Abl. The conditions noted are these: 33 mutant forms evaluated.
A further assay has as its system Thr315lle Bcr-Abl. The conditions noted are these: only mutant of the 33 not inhibited.

Take `Cc1cn(-c2cc(NC(=O)c3ccc(C)c(Nc4nccc(-c5cccnc5)n4)c3)cc(C(F)(F)F)c2)cn1` [AMN107, 4-Methyl-3-[[4-(3-pyridinyl)-2-pyrimidinyl]amino]-N-[5-(4-methyl-1H-imidazol-1-yl)-3-(trifluoromethyl)phenyl] benzamide]: the “mutant forms of Bcr-Abl inhibited, out of those currently evaluated” value in the assay on mutant forms of Bcr-Abl is 32 of 33. Also, the “sensitivity of the Thr315lle mutant” value with Thr315lle Bcr-Abl is on record as “resistant”.
